From patent US6610677B2, “Pyrazole compounds useful as protein kinase inhibitors” (Vertex Pharmaceuticals Incorporated, priority 2000, dated 2003) come the findings set out here.

pKi: −log10 of the molar value. Some results are limits rather than exact numbers.

As usually defined, the pKi is the negative decadic logarithm of the Ki, by convention in mol/L.

The target in the assay is T1, GSK-3β (AA 1-420) (Homo sapiens, UniProt P49841).
T1 construct: GSK-3β (AA 1-420)
T1 sequence (P49841 whole entry, the tested form may be a part): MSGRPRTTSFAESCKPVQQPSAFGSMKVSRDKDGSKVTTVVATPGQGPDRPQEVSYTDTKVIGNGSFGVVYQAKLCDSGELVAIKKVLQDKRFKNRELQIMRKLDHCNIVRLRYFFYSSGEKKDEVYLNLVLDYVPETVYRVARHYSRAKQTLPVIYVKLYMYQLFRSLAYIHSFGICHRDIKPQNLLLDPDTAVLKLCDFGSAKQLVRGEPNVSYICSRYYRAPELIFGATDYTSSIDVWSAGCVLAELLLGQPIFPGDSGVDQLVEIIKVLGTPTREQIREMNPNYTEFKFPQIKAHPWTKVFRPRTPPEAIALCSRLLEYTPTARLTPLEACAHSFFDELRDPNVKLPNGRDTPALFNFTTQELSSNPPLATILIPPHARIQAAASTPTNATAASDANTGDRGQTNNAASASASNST
Kind of assay: Ki determination for the inhibition of GSK-3 (coupled enzyme system). The class given is biochemical. As to conditions: 20 μM ATP, 300 μM peptide, 20 nM GSK-3β, 30° C. As for the experimental part: Compounds were screened for their ability to inhibit GSK-3β (AA 1-420) activity using a standard coupled enzyme system (Fox et al. (1998) Protein Sci. 7, 2249). Reactions were carried out in a solution containing 100 mM HEPES (pH 7.5), 10 mM MgCl2, 25 mM NaCl, 300 μM NADH, 1 mM DTT and 1.5% DMSO. Final substrate concentrations in the assay were 20 μM ATP (Sigma Chemicals, St Louis, Mo.) and 300 μM peptide (HSSPHQS(PO3H2)EDEEE, American Peptide, Sunnyvale, Calif.). Reactions were carried out at 30° C. and 20 nM GSK-3β. Final concentrations of the components of the coupled enzyme system were 2.5 mM phosphoenolpyruvate, 300 μM NADH, 30 μg/ml pyruvate kinase and 10 μg/ml lactate dehydrogenase.
An assay stock buffer solution was prepared containing all of the reagents listed above with the exception of ATP and the test compound of interest. The assay stock buffer solution (175 μl) was incubated in a 96 well plate with 5 μl of the test compound of interest at final concentrations spanning 0.002 μM to 30 μM at 30° C. for 10 min. Typically, a 12 point titration was conducted by preparing serial dilutions (from 10 mM compound stocks) with DMSO of the test compounds in daughter plates. The reaction was initiated by the addition of 20 μl of ATP (final concentration 20 μM). Rates of reaction were obtained using a Molecular Devices Spectramax plate reader (Sunnyvale, Calif.) over 10 min at 30° C. The Ki values were determined from the rate data as a function of inhibitor concentration.
Take `Clc1ccccc1-c1nc2c(c(Nc3n[nH]c4ccccc34)n1)CCC2` [II-116, [2-(2-Chloro-phenyl)-6,7-dihydro-5H-cyclopentapyrimidin-4-yl]-(1H-indazol-3-yl)-amine]: the pKi is above 7.00.

The molecule `Fc1cccc2c(Nc3nc(-c4ccccc4Cl)nc4c3CCC4)n[nH]c12` [II-117, [2-(2-Chloro-phenyl)-6,7-dihydro-5H-cyclopentapyrimidin-4-yl]-(7-fluoro-1H-indazol-3-yl)-amine] showed a pKi above 7.00.

In turn, `Fc1cc(F)c2[nH]nc(Nc3nc(-c4ccccc4Cl)nc4c3CCC4)c2c1` [II-118, [2-(2-Chloro-phenyl)-6,7-dihydro-5H-cyclopentapyrimidin-4-yl]-(5,7-difluoro-1R-indazol-3-yl)-amine] had a pKi above 7.00.

`FC(F)(F)c1ccccc1-c1nc2c(c(Nc3n[nH]c4ccccc34)n1)CCCCCC2` [II-119, (1H-Indazol-3-yl)-[2-(2-trifluoromethyl-phenyl)-5,6,7,8,9,10-hexahydro-cyclooctapyrimidin-4-yl]-amine]: the pKi was above 7.00.

The molecule `Fc1cccc2c(Nc3nc(-c4ccccc4C(F)(F)F)nc4c3CCCCCC4)n[nH]c12` [II-120, (7-Fluoro-1H-indazol-3-yl)-[2-(2-trifluoromethyl-phenyl)-5,6,7,8,9,10-hexahydro-cyclooctapyrimidin-4-yl]-amine] had a pKi above 7.00.

Consider `Fc1cc(F)c2[nH]nc(Nc3nc(-c4ccccc4C(F)(F)F)nc4c3CCCCCC4)c2c1` [II-121, (5,7-Difluoro-1H-indazol-3-yl)-[2-(2-trifluoromethyl-phenyl)-5,6,7,8,9,10-hexahydro-cyclooctapyrimidin-4-yl]-amine], for which the pKi is above 7.00.

As to `Fc1ccc2c(Nc3nc(-c4ccccc4C(F)(F)F)nc4ccccc34)n[nH]c2c1` [II-124, (6-Fluoro-1H-indazol-3-yl)-[2-(2-trifluoromethyl-phenyl)-quinazolin-4-yl]-amine], the pKi is above 7.00.

`COC(=O)c1ccc2[nH]nc(Nc3nc(-c4ccccc4C(F)(F)F)nc4ccccc34)c2c1` [II-125, 3-[2-(2-Trifluoromethyl-phenyl)-quinazolin-4-ylamino]-1H-indazole-5-carboxylic acid methyl ester] showed a negative-log Ki (pKi) above 7.00.

As to `Cc1cc(Nc2nc(-c3cccc4ccccc34)nc3ccccc23)n[nH]1` [II-208, (5-Methyl-2H-pyrazol-3-yl)-[2-(2-naphthyl-1-yl)-quinazolin-4-yl]-amine], the pKi is above 7.00.

In turn, `Cc1cc(Nc2nc(-c3ccccc3)nc3c2CCCCC3)n[nH]1` [III-8, (5-Methyl-2H-pyrazol-3-yl)-(2-phenyl-6,7,8,9-tetrahydro-5H-cycloheptapyrimidin-4-yl)-amine] had a pKi above 7.00.

Take `Cc1cc(Nc2nc(-c3ccncc3)nc3ccc(Cl)cc23)[nH]n1` [III-29, (6-Chloro-2-pyridin-4-yl-quinazolin-4-yl)-(5-methyl-2H-pyrazol-3-yl)-amine]: the negative logarithm of the Ki (pKi) is 6.00 to 7.00.

Regarding `Cc1cc(Nc2nc(-c3ccc4c(c3)OCO4)nc3ccccc23)[nH]n1` [III-43, (2-Benzo[1,3]dioxol-5-yl-quinazolin-4-yl)-(5-methyl-2H-pyrazol-3-yl)-amine], the pKi was 6.00 to 7.00.

`Cc1cc(Nc2nc(-c3ccsc3)nc3ccccc23)[nH]n1` [III-62, (5-Methyl-2H-pyrazol-3-yl)-(2-thiophen-3-yl-quinazolin-4-yl)-amine] showed a pKi above 7.00.

With `CC(C)NC(=O)c1cc(Nc2nc(-c3ccccc3)nc3ccccc23)[nH]n1` [III-81], the negative logarithm of the Ki (pKi) is 4.70 to 6.00.

In turn, `COCCNC(=O)c1cc(Nc2nc(-c3ccccc3)nc3ccccc23)[nH]n1` [III-83] gave a pKi of 4.70 to 6.00.

`CCCNC(=O)c1cc(Nc2nc(-c3ccccc3)nc3ccccc23)[nH]n1` [III-88, (2-Phenyl-quinazolin-4-yl)-(5-propylcarbamoyl-2H-pyrazol-3-yl)-amine] had a pKi of 6.00 to 7.00.

As for `O=C(NC1CC1)c1cc(Nc2nc(-c3ccccc3)nc3ccccc23)[nH]n1` [III-90, (5-Cyclopropylcarbamoyl-2H-pyrazol-3-yl)-(2-phenyl-quinazolin-4-yl)-amine], the pKi was 6.00 to 7.00.

In turn, `CC(C)CNC(=O)c1cc(Nc2nc(-c3ccccc3)nc3ccccc23)[nH]n1` [III-91, (5-Isobutylcarbamoyl-2H-pyrazol-3-yl)-(2-phenyl-quinazolin-4-yl)-amine] had a pKi of 4.70 to 6.00.

For the molecule `Cc1cccc(NC(=O)c2cc(Nc3nc(-c4ccccc4)nc4ccccc34)[nH]n2)c1` [III-94, (2-Phenyl-quinazolin-4-yl)-(5-m-tolylcarbamoyl-2H-pyrazol-3-yl)-amine], the pKi is 4.70 to 6.00.

Take `Cc1ccc(NC(=O)c2cc(Nc3nc(-c4ccccc4)nc4ccccc34)[nH]n2)cc1` [III-95, (2-Phenyl-quinazolin-4-yl)-(5-p-tolylcarbamoyl-2H-pyrazol-3-yl)-amine]: the pKi is 4.70 to 6.00.

Regarding `CNC(=O)c1cc(Nc2nc(-c3ccccc3)nc3ccccc23)[nH]n1` [III-96, (5-Methylcarbamoyl-2H-pyrazol-3-yl)-(2-phenyl-quinazolin-4-yl)-amine], the pKi was 4.70 to 6.00.

As for `O=C(c1cc(Nc2nc(-c3ccccc3)nc3ccccc23)[nH]n1)N1CCOCC1` [III-97, [5-(Morpholine-4-carbonyl)-2H-pyrazol-3-yl]-(2-phenyl-quinazolin-4-yl)-amine], the pKi is 4.70 to 6.00.

Molecule `CN1CCN(C(=O)c2cc(Nc3nc(-c4ccccc4)nc4ccccc34)[nH]n2)CC1` [III-98, [5-(1-Methylpiperazine-4-carbonyl)-2H-pyrazol-3-yl]-(2-phenyl-quinazolin-4-yl)-amine] showed a pKi of 4.70 to 6.00.

In the case of `O=C(NCCO)c1cc(Nc2nc(-c3ccccc3)nc3ccccc23)[nH]n1` [III-99], the pKi is 4.70 to 6.00.

As to `NC(=O)c1cc(Nc2nc(-c3ccccc3)nc3ccccc23)[nH]n1` [III-100, (5-Carbamoyl-2H-pyrazol-3-yl)-(2-phenyl-quinazolin-4-yl)-amine], the pKi is 4.70 to 6.00.

`COC(=O)c1cc(Nc2nc(N3CCCCC3)nc3ccccc23)[nH]n1` [III-122, (5-Methoxycarbonyl-2H-pyrazol-3-yl)-[2-(piperidine-1-yl)-quinazolin-4-yl]-amine] had a negative-log Ki (pKi) of 6.00 to 7.00.

With `O=C(c1cc(Nc2nc(N3CCCCC3)nc3ccccc23)[nH]n1)N1CCCCC1` [III-123, [5-(Piperidine-1-carbonyl)-2H-pyrazol-3-yl]-[2-(piperidine-1-yl)-quinazolin-4-yl]-amine], the negative logarithm of the Ki (pKi) was 4.70 to 6.00.

As to `FC(F)(F)c1ccc2[nH]nc(Nc3nc(-c4ccccc4)nc4c3CCCC4)c2c1` [III-128, (2-Phenyl-5,6,7,8-tetrahydroquinazolin-4-yl)-(5-trifluoromethyl-1H-indazol-3-yl)-amine], the pKi is above 7.00.

For `Fc1cc(F)c2n[nH]c(Nc3nc(-c4ccccc4)nc4ccccc34)c2c1` [III-131, (5,7-Difluoro-1H-indazol-3-yl)-(2-phenyl-quinazolin-4-yl)-amine], the negative logarithm of the Ki (pKi) is above 7.00.

`COc1cccc(-n2nc3c(Nc4nc(-c5ccccc5)nc5ccccc45)n[nH]c3cc2=O)c1` [III-134, [5-(3-Methoxy-phenyl)-6-oxo-5,6-dihydro-1H-pyrazolo[4,3-c]pyridazin-3-yl]-(2-phenyl-quinazolin-4-yl)-amine] gave a pKi of 6.00 to 7.00.

`O=c1cc2[nH]nc(Nc3nc(-c4ccccc4)nc4ccccc34)c2nn1-c1ccccc1` [III-135, (6-Oxo-5-phenyl-5,6-dihydro-1H-pyrazolo[4,3-c]pyridazin-3-yl)-(2-phenyl-quinazolin-4-yl)-amine]: the pKi was 6.00 to 7.00.

`COc1ccc(-n2nc3c(Nc4nc(-c5ccccc5)nc5ccccc45)n[nH]c3cc2=O)cc1` [III-136, [5-(4-Methoxy-phenyl)-6-oxo-5,6-dihydro-1H-pyrazolo[4,3-c]pyridazin-3-yl]-(2-phenyl-quinazolin-4-yl)-amine] showed a pKi of 6.00 to 7.00.

With `O=c1cc2[nH]nc(Nc3nc(-c4ccccc4)nc4ccccc34)c2nn1-c1ccc(Cl)cc1Cl` [III-137, [5-(2,4-Dichloro-phenyl)-6-oxo-5,6-dihydro-1H-pyrazolo[4,3-c]pyridazin-3-yl]-(2-phenyl-quinazolin-4-yl)-amine], the pKi is 4.70 to 6.00.

The molecule `O=c1cc2[nH]nc(Nc3nc(-c4ccccc4)nc4ccccc34)c2nn1-c1cccc(C(F)(F)F)c1` [III-138, [6-Oxo-5-(3-trifluoromethyl-phenyl)-5,6-dihydro-1H-pyrazolo[4,3-c]pyridazin-3-yl]-(2-phenyl-quinazolin-4-yl)-amine] showed a pKi of 6.00 to 7.00.

For the molecule `O=c1cc2[nH]nc(Nc3nc(-c4ccccc4)nc4ccccc34)c2nn1-c1ccc(Oc2ccccc2)cc1` [III-139, [6-Oxo-5-(4-Phenoxy-phenyl)-5,6-dihydro-1H-pyrazolo[4,3-c]pyridazin-3-yl]-(2-phenyl-quinazolin-4-yl)-amine], the pKi is 4.70 to 6.00.

In turn, `O=c1cc2[nH]nc(Nc3nc(-c4ccccc4)nc4ccccc34)c2nn1-c1ccc(Cl)cc1` [III-140, [5-(4-Chloro-phenyl)-6-oxo-5,6-dihydro-1H-pyrazolo[4,3-c]pyridazin-3-yl]-(2-phenyl-quinazolin-4-yl)-amine] had a pKi of 6.00 to 7.00.

Take `Cc1nccn1-c1nc(Nc2[nH]nc3ccccc23)c2ccccc2n1` [III-142]: the pKi is 6.00 to 7.00.
